Tested on: brains, heart, liver, muscle, and DRG of the NHPs
Experiment: Maturation of TTM-001 and TTM-002 capsids, NGS enrichment in NHP tissues
Assay type: in vivo
From the text: This Example describes maturation of the AAV9 capsid variants, TTM-001 (SEQ ID NO: 981 (amino acid) and 983 (DNA), comprising SEQ ID NO: 941 (encoded by SEQ ID NO: 942)) and TTM-002 (SEQ ID NO: 982 (amino acid) and 984 (DNA), comprising SEQ ID NO: […] (encoded by SEQ ID NO: 944)) in NHPs to further enhance their transduction and biodistribution in the central nervous system as well as other tissues, and evolve the AAV capsid variants to provide further cross-species compatibility. Two approaches were used to mature the TTM-001 and TTM-002 capsid sequences in order to randomize and mutate within and around the peptide insert comprised within loop IV of the capsid variant. […] In the first maturation approach, sets of three contiguous amino acids were randomized across the mutagenesis region in the TTM-001 and TTM-002 sequences, which spanned from position 450 to position 466, numbered according to SEQ ID NO: 981 and 982. In the second maturation approach, mutagenic primers were used to introduce point mutations at a low frequency, scattered across the mutagenesis region in the TTM-001 and TTM-002 sequences ranging from position 449 to position 466, numbered according to SEQ ID NO: 981 and 982. AAV capsid variants arising from each maturation approach for TTM-001 and TTM-002 were pooled together, for subsequent testing and characterization in NHPs.
The library of pooled matured AAV capsid variants generated using the first maturation approach and the second maturation approach for the TTM-001 and TTM-002 AAV capsid variants were injected into two NHPs. […] Following RNA recovery and RT-PCR amplification, a systematic NGS enrichment analysis was performed to calculate the fold enrichment ratio relative to an AAV9 control, and the peptides comprised within the variants were identified.
Following the RNA recovery and NGS analysis from the second maturation approach, approximately 680,000 capsid variants were identified. The 680,000 matured capsid variants were then filtered based on samples with a raw virus count greater than 10 and a coefficient of variance (CV) of less than 1, which was calculated for each peptide across the brain samples taken from the two NHPs. […] Using this filtering criteria, this led to approximately 64,000 matured capsid variants.

[1] = NGS fold-enrichment, DRG, NHP, relative to AAV9
[2] = NGS fold-enrichment, brain, NHP, relative to AAV9
[3] = NGS fold-enrichment, heart, NHP, relative to AAV9
[4] = NGS fold-enrichment, liver DNA, NHP, relative to AAV9
[5] = NGS fold-enrichment, liver RNA, NHP, relative to AAV9
[6] = NGS fold-enrichment, muscle, NHP, relative to AAV9
[7] = NHP DRG, NGS, relative to AAV9 control
[8] = NHP brain, NGS, relative to AAV9 control
[9] = NHP heart, NGS, relative to AAV9 control
[10] = NHP liver DNA, NGS, relative to AAV9 control
[11] = NHP liver RNA, NGS, TTM-001 and TTM-002 matured AAV capsid variants, relative to AAV9 control
[12] = NHP muscle, NGS, relative to AAV9 control

Sequence	Fold Enrichment relative to AAV9, DRG (NHP) [1] [fold]	Fold Enrichment relative to AAV9, Brain (NHP) [2] [fold]	Fold Enrichment relative to AAV9, Heart (NHP) [3] [fold]	Fold Enrichment relative to AAV9, Liver DNA (NHP) [4] [fold]	Fold Enrichment relative to AAV9, Liver RNA (NHP) [5] [fold]	Fold Enrichment relative to AAV9, Muscle (NHP) [6] [fold]	Fold Enrichment relative to AAV9, DRG (NHP) [7] [fold]	Fold Enrichment relative to AAV9, Brain (NHP) [8] [fold]	Fold Enrichment relative to AAV9, Heart (NHP) [9] [fold]	Fold Enrichment relative to AAV9, Liver DNA (NHP) [10] [fold]	Fold Enrichment relative to AAV9, Liver RNA (NHP) [11] [fold]	Fold Enrichment relative to AAV9, Muscle (NHP) [12] [fold]
KTINGSGSPHSKALRHQT	0.000	0.000	0.000	4.532	10.774	0.000	–	–	–	–	–	–
KTINGSGSPHSKALRWQT	–	–	–	–	–	–	0.000	0.000	0.000	5.252	14.118	0.000
KTINGSGSPHSKAPRRQT	–	–	–	–	–	–	0.000	0.000	0.000	3.940	21.645	0.000
KTINGSGSPHSKAQARKT	–	–	–	–	–	–	0.000	0.000	0.000	3.644	96.557	0.000
KTINGSGSPHSKAQCLKT	–	–	–	–	–	–	0.000	0.000	0.000	1.453	49.565	0.000
KTINGSGSPHSKAQFCLT	0.000	0.000	0.000	3.371	10.065	0.000	–	–	–	–	–	–
KTINGSGSPHSKAQFILT	–	–	–	–	–	–	0.000	0.000	0.000	4.208	16.650	0.000
KTINGSGSPHSKAQKCIT	–	–	–	–	–	–	0.000	0.000	0.000	1.887	69.547	0.000
KTINGSGSPHSKAQMQIT	–	–	–	–	–	–	0.000	0.000	0.000	0.371	13.990	0.000
KTINGSGSPHSKAQNFKR	–	–	–	–	–	–	0.000	0.000	0.000	0.964	32.291	0.000
KTINGSGSPHSKAQRFKT	–	–	–	–	–	–	0.000	0.000	0.000	0.139	30.363	0.000
KTINGSGSPHSKAQSAKT	–	–	–	–	–	–	0.000	0.000	0.000	4.200	11.162	0.000
KTINGSGSPHSKAQSRKT	–	–	–	–	–	–	0.000	0.000	0.000	2.715	14.589	0.000
KTINGSGSPHSKAQTCRT	–	–	–	–	–	–	0.000	0.000	0.000	6.369	26.472	0.000
KTINGSGSPHSKAQTHRT	–	–	–	–	–	–	0.000	0.000	0.000	2.917	17.290	0.000
KTINGSGSPHSKAQYSRT	–	–	–	–	–	–	0.000	0.000	0.000	0.956	60.119	0.000
KTINGSGSPHSKAQYVRT	–	–	–	–	–	–	0.000	0.000	0.000	3.275	12.239	0.000
KTINGSGSPHSKARISQT	–	–	–	–	–	–	0.000	0.000	0.000	1.565	12.142	0.000
KTINGSGSPHSKARMYQT	–	–	–	–	–	–	0.000	0.000	0.000	0.313	23.424	0.000
KTINGSGSPHSKARQRQT	–	–	–	–	–	–	0.000	0.000	0.000	2.205	56.775	0.000
KTINGSGSPHSKARWQQT	–	–	–	–	–	–	0.000	0.000	0.000	2.377	45.017	0.000
KTINGSGSPHSKCFLQQT	–	–	–	–	–	–	0.000	0.000	0.000	1.434	22.987	0.000
KTINGSGSPHSKCSVQQT	–	–	–	–	–	–	0.000	0.000	0.000	1.465	12.246	0.000
KTINGSGSPHSKCTSQQT	0.232	0.493	1.413	5.821	10.311	2.353	–	–	–	–	–	–
KTINGSGSPHSKFFIQQT	–	–	–	–	–	–	0.000	0.000	0.000	6.916	63.255	0.000

From US20260250318A1, “COMPOSITIONS AND METHODS FOR CROSSING THE BLOOD BRAIN BARRIER” (VOYAGER THERAPEUTICS, INC., priority 2022, published 2026)
